Where “and” joins values, the source holds several entries; their conditions need not be identical. Equal values may be shown once. Read-outs that look alike come from different tables or passages of the source.
Experiments:
[1] = target: (h)AChE (AChE from human erythrocytes) (Homo sapiens, UniProt P22303); test: biochemical; conditions: for inhibition at 1 µM: read-out: (h)AChE % Inhibition at 10^−6 M
Procedure: DPZ was used as a reference.
Inhibitory capacity of compounds on AChE biological activity was evaluated using the spectrometric method of Ellman. Acetyl- or butyrylthiocholine iodide and 5,5-dithiobis-(2-nitrobenzoic) acid (DTNB) were purchased from Sigma Aldrich. Lyophilized BuChE from equine serum (Sigma Aldrich) was dissolved in 0.2 M phosphate buffer pH 7.4 such as to have enzyme solutions stock with 2.5 units/mL enzyme activity. AChE from human erythrocytes (buffered aqueous solution, ≥500 units/mg protein (BCA), Sigma Aldrich) was diluted in 20 mM HEPES buffer pH 8, 0.1% Triton X-100 such as to have enzyme solution with 0.25 unit/mL enzyme activity. In the procedure, 100 μL of 0.3 mM DTNB dissolved in phosphate buffer pH 7.4 was added to the 96 wells plate followed by 50 μL of test compound solution and 50 μL of enzyme (0.05 U final). After 5 min of preincubation at 25 °C, the reaction was then initiated by the injection of 50 μL of 10 mM acetyl- or butyrylthiocholine iodide solution. […] Assays were performed in simplicate during three independent tests, with a blank containing all components except acetyl- or butyrylthiocholine, in order to account for non-enzymatic reaction. The reaction slopes were compared, and the percent inhibition due to the presence of test compounds was calculated by the following expression: 100 − (vi/v0 × 100) where vi is the rate calculated in the presence of inhibitor and v0 is the enzyme activity.

[2] = target: (eq)BuChE (BuChE from equine serum) (Equus caballus, UniProt P81908); test: (eq)BuChE inhibition, Ellman test; format: biochemical; conditions: for inhibition at 1 µM: read-out: (eq)BuChE % Inhibition at 10^−6 M
(eq)BuChE (BuChE from equine serum), sequence (P81908 whole entry): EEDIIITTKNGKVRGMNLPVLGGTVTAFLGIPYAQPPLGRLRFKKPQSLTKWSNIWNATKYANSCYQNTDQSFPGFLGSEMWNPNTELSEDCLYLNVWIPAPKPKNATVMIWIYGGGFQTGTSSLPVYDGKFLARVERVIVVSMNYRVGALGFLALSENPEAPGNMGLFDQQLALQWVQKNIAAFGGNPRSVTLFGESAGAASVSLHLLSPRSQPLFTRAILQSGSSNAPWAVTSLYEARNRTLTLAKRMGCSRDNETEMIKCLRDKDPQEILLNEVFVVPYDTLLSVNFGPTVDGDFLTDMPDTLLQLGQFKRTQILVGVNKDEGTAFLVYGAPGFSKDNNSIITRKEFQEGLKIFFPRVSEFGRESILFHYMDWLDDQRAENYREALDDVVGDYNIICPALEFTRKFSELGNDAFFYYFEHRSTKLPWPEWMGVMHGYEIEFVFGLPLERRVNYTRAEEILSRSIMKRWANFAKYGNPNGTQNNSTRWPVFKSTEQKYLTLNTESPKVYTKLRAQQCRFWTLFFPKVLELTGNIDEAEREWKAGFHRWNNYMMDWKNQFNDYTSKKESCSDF
Procedure: . DPZ was used as a reference.
Inhibitory capacity of compounds on AChE biological activity was evaluated using the spectrometric method of Ellman. Acetyl- or butyrylthiocholine iodide and 5,5-dithiobis-(2-nitrobenzoic) acid (DTNB) were purchased from Sigma Aldrich. Lyophilized BuChE from equine serum (Sigma Aldrich) was dissolved in 0.2 M phosphate buffer pH 7.4 such as to have enzyme solutions stock with 2.5 units/mL enzyme activity. AChE from human erythrocytes (buffered aqueous solution, ≥500 units/mg protein (BCA), Sigma Aldrich) was diluted in 20 mM HEPES buffer pH 8, 0.1% Triton X-100 such as to have enzyme solution with 0.25 unit/mL enzyme activity. In the procedure, 100 μL of 0.3 mM DTNB dissolved in phosphate buffer pH 7.4 was added to the 96 wells plate followed by 50 μL of test compound solution and 50 μL of enzyme (0.05 U final). After 5 min of preincubation at 25 °C, the reaction was then initiated by the injection of 50 μL of 10 mM acetyl- or butyrylthiocholine iodide solution. The hydrolysis of acetyl- or butyrylthiocholine was monitored by the formation of yellow 5-thio-2-nitrobenzoate anion as the result of the reaction of DTNB with thiocholine, released by the enzymatic hydrolysis of acetyl- or butyrylthiocholine, at a wavelength of 412 nm using a 96-well microplate plate reader (TECAN Infinite M200, Lyon, France). […]. The rate of absorbance increase at 412 nm was followed every minute for 10 min. Assays were performed in simplicate during three independent tests, with a blank containing all components except acetyl- or butyrylthiocholine, in order to account for non-enzymatic reaction. The reaction slopes were compared, and the percent inhibition due to the presence of test compounds was calculated by the following expression: 100 − (vi/v0 × 100) where vi is the rate calculated in the presence of inhibitor and v0 is the enzyme activity.
First screening of AChE and BuChE activity was carried out at a 10^−6 or 10^−5 M concentration of compounds under study. […]

[3] = target: T1, human recombinant MAO-B (Homo sapiens, UniProt P27338); test: (h)MAO-B inhibition, kynuramine fluorescence assay; format: biochemical; conditions: kynuramine 50 µM; for inhibition at 10 µM: 10^−5 M; for IC50: (h)MAO-B IC50 (µM) (n = 3), mean ± SEM, n = 3
T1 construct: purchased Sigma Aldrich; host or cells: baculovirus infected insect cells (microsomes)
T1 sequence (P27338 1-520): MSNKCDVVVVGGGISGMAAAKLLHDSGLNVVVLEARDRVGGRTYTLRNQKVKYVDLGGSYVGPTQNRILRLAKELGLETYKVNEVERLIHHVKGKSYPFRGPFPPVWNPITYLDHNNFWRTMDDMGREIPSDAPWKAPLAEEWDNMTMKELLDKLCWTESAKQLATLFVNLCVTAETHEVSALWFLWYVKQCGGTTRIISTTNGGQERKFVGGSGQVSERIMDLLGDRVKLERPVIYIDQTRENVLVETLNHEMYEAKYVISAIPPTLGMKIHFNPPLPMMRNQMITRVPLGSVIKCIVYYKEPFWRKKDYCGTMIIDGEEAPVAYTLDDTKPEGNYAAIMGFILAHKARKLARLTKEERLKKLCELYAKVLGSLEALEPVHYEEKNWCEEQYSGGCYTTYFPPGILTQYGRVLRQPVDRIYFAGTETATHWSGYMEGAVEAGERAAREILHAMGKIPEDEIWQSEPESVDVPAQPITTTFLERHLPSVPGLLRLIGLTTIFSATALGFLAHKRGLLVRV
Procedure: (§1) Inhibition of human recombinant monoamine oxidases A (250 U/mg) and B (59 U/mg; microsomes from baculovirus infected insect cells; Sigma Aldrich) was determined as already described, measuring the fluorescence of 4-hydroxyquinoline (exc. 310 nm; em. 400 nm) produced by MAOs in the oxidative deamination of substrate kynuramine. […] Assays were performed in triplicate during three independent tests, in 96-well black polystyrene plates (Greiner Bio-One, Kremsmünster, Austria) using an Infinite M1000 Pro plate reader (Tecan, Cernusco s.N., Italy).

[4] = target: T2, human recombinant MAO-A (Homo sapiens, UniProt P21397); test: (h)MAO-A inhibition, kynuramine fluorescence assay; format: biochemical; conditions: 10^−5 M; kynuramine 50 µM
T2 construct: purchased Sigma Aldrich; host or cells: baculovirus infected insect cells (microsomes)
T2 sequence (P21397 1-527): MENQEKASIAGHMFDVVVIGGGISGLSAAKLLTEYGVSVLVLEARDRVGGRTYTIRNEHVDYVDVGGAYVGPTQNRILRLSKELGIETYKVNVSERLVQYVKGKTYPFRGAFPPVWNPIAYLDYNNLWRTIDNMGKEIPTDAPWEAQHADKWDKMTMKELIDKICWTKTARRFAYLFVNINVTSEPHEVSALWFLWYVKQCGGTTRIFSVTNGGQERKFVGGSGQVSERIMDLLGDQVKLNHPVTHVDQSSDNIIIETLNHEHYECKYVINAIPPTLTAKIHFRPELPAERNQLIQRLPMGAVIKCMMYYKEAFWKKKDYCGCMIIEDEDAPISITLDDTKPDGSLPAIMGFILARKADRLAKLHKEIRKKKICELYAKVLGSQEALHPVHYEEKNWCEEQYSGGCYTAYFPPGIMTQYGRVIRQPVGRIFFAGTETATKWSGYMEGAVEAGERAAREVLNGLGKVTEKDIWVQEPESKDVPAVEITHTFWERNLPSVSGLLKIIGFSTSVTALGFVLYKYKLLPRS
Procedure: as §1

(h)AChE (AChE from human erythrocytes), sequence (P22303 other isoform, or with tags, fused parts or gaps): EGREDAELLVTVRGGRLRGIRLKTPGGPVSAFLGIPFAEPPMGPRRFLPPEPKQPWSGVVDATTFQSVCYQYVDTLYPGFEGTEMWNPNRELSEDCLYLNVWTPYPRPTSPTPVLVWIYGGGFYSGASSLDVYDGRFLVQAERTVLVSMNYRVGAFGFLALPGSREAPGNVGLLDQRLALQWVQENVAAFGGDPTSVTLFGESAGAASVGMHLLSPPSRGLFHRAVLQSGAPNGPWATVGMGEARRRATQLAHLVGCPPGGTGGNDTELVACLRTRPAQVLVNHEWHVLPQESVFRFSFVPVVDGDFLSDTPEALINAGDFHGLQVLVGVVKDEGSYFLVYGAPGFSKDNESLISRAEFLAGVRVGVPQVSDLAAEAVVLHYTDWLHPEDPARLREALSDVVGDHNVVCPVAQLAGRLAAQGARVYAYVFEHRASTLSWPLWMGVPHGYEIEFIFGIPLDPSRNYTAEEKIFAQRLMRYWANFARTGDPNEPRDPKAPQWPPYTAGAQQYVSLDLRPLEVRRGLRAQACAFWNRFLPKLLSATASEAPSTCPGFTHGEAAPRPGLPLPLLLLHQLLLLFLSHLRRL

C#CCN[C@@H]1c2cc(OC)c(OC)cc2C(=O)[C@H]1CC1CCN(Cc2ccccc2)CC1 (relative stereo) [Trans-PADPZ (19), Trans 2-[(1-Benzyl-4-piperidyl)methyl]-5,6-dimethoxy-3-(prop-2-ynylamino)indan-1-one]
IC50 ([1]; (h)AChE IC50 (µM) (n = 3), mean ± SEM, n = 3): 0.4 µM and 0.442 µM | relative selectivity: BuChE inhibited at a concentration fold greater than AChE ([1]; BuChE IC50 vs (h)AChE IC50): 10 fold | inhibition at 1 µM [1]: 71% | IC50 ([1]; value in nM, read-out: (h)AChE IC50): 0.44 µM | IC50 ([2]; (eq)BuChE IC50 (µM) (n = 3), mean ± SEM, n = 3): 4.23 ± 0.375 µM | inhibition at 1 µM [2]: 74% | inhibition at 10 µM [3]: 52% | IC50 [3]: 6.4 µM and 6.43 µM | inhibition at 10 µM [4]: 13%

COc1cc2c(cc1OC)C(NC(C)=O)C(CC1CCN(Cc3ccccc3)CC1)C2=O (centres unmarked) [Compound 16]
inhibition at 1 µM [1]: 4% | inhibition at 1 µM [2]: 39%

C#CCNC1CC(=O)c2cc(OC)c(OC)cc21 (centres unmarked) [Compound 5, 5,6-Dimethoxy-3-(prop-2-ynylamino)indan-1-one]
inhibition at 10 µM [3]: 45% | IC50 [3]: 13.4 ± 3.4 µM | inhibition at 10 µM [4]: < 10%
